Experimental data taken from patent publication US20110269797A1, “ANLN PROTEIN AS AN ENDOCRINE TREATMENT PREDICTIVE FACTOR” (ATLAS ANTIBODIES AB, priority 2008, published 2011).
“Also recorded” adds a separate entry of the source.

Assays:
[1] = tested on: ERα+/PR− tumors; settings: follow-up period of 6 years, Dowsett 2005; cited from earlier work
[2] = tested on: stage II primary breast carcinoma; experiment: Randomized premenopausal tamoxifen trial, Cohort II TMA, Kaplan-Meier survival analysis by ANLN protein level; type: in vivo, human
Text: Median age at diagnosis was 45 (25-57) years. Median follow-up was 13.9 years and less than 2% of the patients had received adjuvant chemotherapy. The study design is described in detail elsewhere (Rydén L et al, Eur J Cancer, 2005, 41(2): 256-64). Ethical permission was obtained from the Local Ethics Committees at Lund and Linkoping Universities.
All cases had been histopathologically re-evaluated on hematoxylin and eosin stained slides. TMA:s were constructed by sampling 2×0.6 mm cores per case from areas representative of invasive cancer, using an automated arraying device (ATA-27, Beecher Inc, Sun Prairie, Wis., USA). The TMA:s were prepared and automated IHC was performed as described in section 3 above, using the ANLN protein antibody prepared as described in section 2 above. IHC staining of ER had been performed previously. In line with current clinical praxis, a cut-off at 10% positive nuclei was used to define hormone receptor positivity.
For statistical analyses, categories were based on nuclear fraction (nf). nf was evaluated as in Examples, section 4, above. As with “the fraction of stained cells” in Examples, Section 3 above, nf was classified as ≦1%, 2-25%, 26-75% or >75%. For this purpose the 2-25% group were split into two groups namely 2-10% and >10-25%. Based on the survival trends for all different strata, dichotomized variables were constructed for further statistical analyses. […] Subsequently, groups denoted “high” or “low” were established based on ANLN protein expression. In a first analysis, the “high” group represented a nuclear fraction (nf) of >1%, and the “low” group a nuclear fraction≦1%. In a second analysis, the “high” group represented a nuclear fraction (nf) of >10%, and the “low” group a nuclear fraction≦10%.
In a third analysis, the “high” group represented a nuclear fraction (nf) of 26%, and the “low” group a nuclear fraction≦25%. This classification of samples was used for OS, RFS and BOSS analysis according to the Kaplan-Meier estimator, and the log-rank test was used to compare survival in different strata. All statistical tests were two-sided, and p-values of <[…] were considered significant. All calculations were made with the statistical package SPSS 16.0 (SPSS Inc. Ill., USA).

[3] = tested on: primary breast cancer; experiment: Consecutive cohort TMA (Cohort I), survival analysis of tamoxifen-treated ER+ subjects by ANLN protein level; type: in vivo, human; settings: ER+ subjects given adjuvant tamoxifen; cut off nf 1%; FIG. 6, p=0.018
Text: Archival formalin-fixed paraffin-embedded tissue from 498 patients diagnosed with primary breast cancer between 1988 and 1992 was collected from the Department of Pathology, Malmo University Hospital, Sweden. The median age of patients was 65 (range 27-96) years and median follow-up time was 128 months (0-207). Information regarding the date of death was obtained from the regional cause-of-death registries for all patients. Ethical permission was obtained from the Local Ethics Committee of Lund University.
All 498 cases of breast cancer were histopathologically reevaluated on slides stained with hematoxylin and eosin. TMA:s were constructed by sampling 2×1.0 mm cores per case from areas representative of invasive cancer, using a manual arraying device (ATA-27, Beecher Inc, Sun Prairie, Wis., USA). The TMA:s were prepared and automated IHC was performed as described in section 3 above, using the ANLN protein antibody prepared as described in section 2 above. IHC staining of ER had been performed previously. […]
For statistical analyses, the nucleic fraction (nf) level was evaluated, in line with what is described in Examples, Section 3 above. The nuclear fraction was subjectively evaluated in accordance to standards used in clinical histo-pathological diagnostics and outcome was classified as ≦1%, 2-25%, 26-75% or >75%. […]

[4] = tested on: breast cancer; settings: cited from earlier work

| SMILES | recurrence rate compared to patients treated with tamoxifen [1] | benefit from tamoxifen treatment (RFS, BCSS, OS) ([2]; ER positive ANLN protein low patients (nf≦10%), TAM vs ctrl, FIGS. 14a, 15a, 16a) | impact of tamoxifen treatment on survival (RFS, BCSS, OS) ([2]; ER positive patients with high ANLN protein level (nf>10%), TAM vs ctrl, FIGS. 14b, 15b, 16b) | RFS of ANLN protein low versus ANLN protein high patients treated with tamoxifen ([2]; adjuvant tamoxifen 2 years, cut off 1% and 10%, FIG. 8) | effect of tamoxifen treatment on RFS ([2]; ductal carcinoma subgroup, ANLN protein low (nf≦10%), TAM vs ctrl, FIG. 20a) | impact of tamoxifen treatment on RFS outcome ([2]; ductal carcinoma subgroup, high ANLN protein level (nf>10%), TAM vs ctrl, FIG. 20b) | impact of tamoxifen treatment on RFS outcome ([2]; subjects with high ANLN protein level (nf>10%), TAM 2 years vs ctrl, FIG. 11) | probability of recurrence free survival, ANLN protein low versus high subjects treated with tamoxifen [3] | ERα positive patients that do not respond to tamoxifen treatment ([4]; Riggins 2007, Gruvberger-Saal 2007) | breast cancer mortality ([4]; five years adjuvant treatment after primary surgery, ER positive tumors, irrespective of lymph node status, EBCTCG 1998) |
| --- | --- | --- | --- | --- | --- | --- | --- | --- | --- | --- |
| CC(C)(C#N)c1cc(Cn2cncn2)cc(C(C)(C)C#N)c1 [anastrozole] | halved |  |  |  |  |  |  |  |  |  |
| CC/C(=C(\c1ccccc1)c1ccc(OCCN(C)C)cc1)c1ccccc1 [tamoxifen] |  | particularly beneficial; also recorded: at least slightly, benefit | limited or no impact | significantly better | effective | no positive impact on the outcome | no positive impact on the outcome | significantly better | 30-40% | reduces |
